Experimental data as given in patent publication US20100035822A1, “PROLINE-RICH PEPTIDES, PHARMACEUTICAL COMPOSITION, USE OF ONE OR MORE PEPTIDES AND METHOD OF TREATMENT” (priority 2006, published 2010).

Key:
[1] = tested on: spontaneously hypertensive rats (SHR); test: Anti-hypertensive effect on mean arterial blood pressure of SHR; assay type: in vivo, rat
Description: In vivo studies on the effect of peptides of the present invention were performed on adult male spontaneously hypertensive rats, and normotensive Wistar rats (Rattus novergicus) weighing 250 to 350 g. Animals had free access to chow (Nuvilab) and water, and were submitted to a light-dark cycle of 12 hours each. Procedures involving animals and their care were conducted according to Giles [Giles A. R. Guidelines for the use of animals in biomedical research. Thromb. Haemost. 58: 1078-1084, 1987]. […]
The cardiovascular parameters (pulse arterial pressure (PAP), mean arterial pressure (MAP), and heart rate (HR)) were monitored by a solid-state strain gauge transducer connected to a computer through a data acquisition system (MP 100; BIOPAC Systems, Inc, Santa Barbara, Calif., USA). The PAP, MAP and HR were continuously presented in different monitor channels and recorded in the computer hard disk for late analysis.
Before drug administration, cardiovascular parameters of the rats were monitored for 40 minutes. […] Arterial blood pressure and heart frequency were continuously monitored for 360 minutes.
Results were expressed as the mean variation of MAP±standard deviation. […]

[2] = tested on: spontaneously hypertensive rats (SHR); test: Anti-hypertensive action on SHR anaesthetized with pentobarbitone; assay type: in vivo, rat
Description: Adult male SHR, weighing between 250 and 350 g, were used. Material and methods described in Example 12 were employed, except for those described below.
1) Five SHR per group were anaesthetized intraperitoneally with 60 mg/Kg body weight with sodium pentobarbitone. Mean arterial blood pressure and heart rate were continuously calculated from arterial blood pressure pulses (PAP). Cardiovascular parameters were monitored during 30 minutes before i.v. administration of peptides SEQ ID NO 1, or SEQ ID NO 4, or SEQ ID NO 8 (71 nmoles/Kg body weight), or captopril (10 μmoles/Kg body weight), in a final volume of 0.5 mL 0.9% NaCl solution. The control was the vehicle (0.9% NaCl). PAM and heart rate were continuously monitored up to 180 minutes after administration of the anti-hypertensive compound.
2) The day before measurements, the SHR underwent surgery for catheter implantation into the femoral artery and vein. […] Cardiovascular parameters of the rats were monitored for 60 minutes before i.v. administration of peptides SEQ ID NO 1, or SEQ ID NO 4, or SEQ ID NO 8 (71 nmoles/Kg body weight), or captopril (10 μmoles/Kg body weight), in a final volume of 0.5 mL 0.9% NaCl solution. […] MAP and heart rate were continuously monitored up to 360 minutes after administration of the peptides.
Results, presented in FIG. 14B, are expressed as mean±SEM. […]

[3] = tested on: renal nitric oxide synthase (NOS); test: Activation of kidney NOS in mice (3H-arginine to 3H-citrulline conversion); assay type: in vivo, mouse
Description: Male Swiss albinos weighing 22-25 g were injected intraperitoneally with: (1) 50 μl 0.9% NaCl (basal level control), or with 0.9% NaCl supplemented with LPS (2 mg/Kg) (positive control); (2) SEQ ID NO 8 (0.21, 0.91, and 3.47 mg/Kg); (3) SEQ ID NO 8 (0.91 mg/Kg) injected into animals pre-treated via intraperitoneally with L-NAME (3 mg/Kg for 1 h); (4) SEQ ID NO 8 (0.91 mg/Kg) injected into animals pre-treated via intraperitoneally with HOE140 (10 μg/Kg for 1 h); (5) captopril (0.21, 0.91, and 3.47 mg/Kg). After 5, 15, 30, 60, 120, and 180 min, animals were killed, their kidneys removed and stored at −70° C. Animals of group 3 and 4 were killed 30 minutes after administration of the oligopeptide.
NOS activity was measured according to Bredt and Snyder [Bredt D S and Snyder S H. Isolation of nitric oxide synthetase, a calmodulin-requiring enzyme. Proc. Natl. Acad. Sci. USA, 87, 682-685, 1990], and is based on estimating the enzymatic activity of the conversion of L-arginine into L-citrulline using ^3H-arginine as a reference for the conversion.
The kidneys were minced in homogenizing buffer, pH 7.4 (20 mM HEPES, 0.32 M saccharose, 1 mM DTT, 0.1 mM EDTA, 1 mM PMSF), and sonicated. Protein dosage was performed according to Bradford (1976), followed by a chromatography step in a 300 μL Dowex 50WX8-400 column.
For the enzymatic assay, 80 μg total protein from each sample were incubated for 60 minutes at 37° C. in 200 μL buffer (30 mM HEPES, 1 mM EDTA, 1.25 mM CaCl2, 1 mM NADPH, 10 μg/mL calmodulin, 4 μM FAD, 4 μM FMN, 25 μM BH4, 120 nM arginine, 0.5 μCi ^3H-arginine). The reaction was stopped by the addition of 1 ml 20 mM HEPES, and incubation in ice bath. ^3H-citrulline was separated from ^3H-arginine by ion-exchange chromatography in a 300 μL Dowex 50WX8-400 column. Radioactivity of the eluates was measured in a beta-counter. After converting cpm (counts per minute) into dpm (disintegration per minute), the specific activity of the nitric oxide synthase (NOS) was calculated using the following equation: […]

Compound | dose of optimum anti-hypertensive activity ([1]; effect is reduced at higher and at lower doses) | effect of pentobarbitone on the anti-hypertensive action [2] | activation of mouse renal NOS activity ([3]; approximately 1 mg/Kg body weight) | molar dose needed for anti-hypertensive activity relative to the peptides ([1]; e.g. 10 μmoles/Kg, the dose that inhibits ACE in vivo) | renal NOS activity after injection ([3]; 0.2-3.5 mg/Kg of body weight)
<ENWPHPQIPP [SEQ ID NO 8] | ~71 nmoles/Kg of body weight | susceptible to the action of pentobarbitone | approximately 60% |  | 
CC(CS)C(=O)N1CCC[C@@H]1C(=O)O (stereo partly drawn) [captopril, D-3-mercapto-2-methyl-1-oxopropyl-L-proline, reference compound] |  | not blocked by pentobarbitone |  | approximately 1000 fold | No significant renal NOS activity
